Consider two molecules from paper PMC3462775 (PLoS ONE, 2012).

Structures are written as SMILES. ≈ marks a conversion by molar mass, not a printed value. Bridge positions count the residues as written; N and C are the ends. Square brackets hold non-standard residues; d marks the D form. Peptide text beside a SMILES is read from it. I, II: the chains in the order shown. βAla = NCCC(=O)O

The test system of one assay is P.aeruginosa ATCC 27853. Briefly: MIC, standard microdilution assay. The assay is classed as cell-based, Pseudomonas aeruginosa. The note with it: Reference strain, wild type; CLSI microdilution, cation-supplemented Mueller-Hinton broth, 5x10^4 CFU/well, 18–20 h at 37°C, triplicate. The method, then: (§1) MICs were determined using a standard microdilution assay as recommended by the Clinical and Laboratory Standards Institute. Assays were performed in triplicate using cation-supplemented Mueller-Hinton (MH) broth (Becton Dickinson, Franklin Lakes, NJ, USA) and a bacterial inoculum of 5x10^4 CFU/well, in a final volume of 100 µl. The tested concentrations ranged from 0.1 µM to 24 µM for both peptides. Results were recorded after 18–20 h of incubation at 37°C.
(In general: Dilution methods test growth across graded concentrations, often in twofold steps.)

Another assay deals with P.aeruginosa AV 65. The assay is classed as cell-based, Pseudomonas aeruginosa. The method, then:
as §1

A further assay has as its system K.pneumoniae ATCC 13833. The assay can be described thus: MIC, standard microdilution assay. The assay is classed as cell-based, Klebsiella pneumoniae. The note with it: Reference strain, wild type; CLSI microdilution, cation-supplemented Mueller-Hinton broth, 5x10^4 CFU/well, 18–20 h at 37°C, triplicate. Here is the method:
as §1

The next assay relates to K.pneumoniae 7086042. The assay is classed as cell-based, Klebsiella pneumoniae. The method, then:
as §1

In another assay the test system is E.coli ATCC 25922. The assay can be described thus: MIC, standard microdilution assay. The assay is classed as cell-based, Escherichia coli. Conditions: Reference strain, wild type; CLSI microdilution, cation-supplemented Mueller-Hinton broth, 5x10^4 CFU/well, 18–20 h at 37°C, triplicate. Here is the method:
as §1

The subject of the next assay is E.coli W03BG0025. The assay is classed as cell-based, Escherichia coli. The method, then: as §1
Another assay relates to S.aureus ATCC 29213. Briefly: MIC, standard microdilution assay. The format is cell-based, Staphylococcus aureus. Conditions: Reference strain, wild type; CLSI microdilution, cation-supplemented Mueller-Hinton broth, 5x10^4 CFU/well, 18–20 h at 37°C, triplicate. The method, then: as §1
A further assay deals with S.epidermidis 6154. The format is cell-based, Staphylococcus epidermidis. The method, then:
as §1

The subject of assay [1] is S. aureus ATCC 25923 biofilm. The assay is classed as cell-based, Staphylococcus aureus. Conditions: for Minimum biofilm eradication concentration (MBEC): ATCC 25923, 20 h. The method, then:
Biofilm formation was performed by adapting the procedure described in [39] using the Calgary Biofilm Device (Innovotech, Innovotech Inc. Edmonton, Canada). Briefly, 96-well plates containing the bacterial inoculum were sealed with lids bearing 96 pegs on which the biofilm could build up. The plates were placed in an orbital incubator at 35°C (for P. aeruginosa and E. coli) or 37°C (for S. aureus) for 20 h under agitation at 125 rpm. Once biofilms formed, the lids were removed from the plates and the pegs were rinsed twice with phosphate buffered saline (PBS) to remove planktonic cells. The peg-lid was then transferred to a 96-well challenge microtiter plate, each well containing 200 µl of a twofold serial dilution of each peptide in LB medium. The challenge plate was incubated at 37°C for 2 hours. Peptide activity on pre-formed biofilm was evaluated by two independent methods: (i) visual observation of bacterial growth and (ii) counting of living bacterial cells after peptide treatment. In the first case, the peg-lid was removed from the challenge plate, rinsed with PBS and used to cover a 96-well recovery microtiter plate, each well containing 200 µl LB medium. The recovery plate was sealed, incubated at 37°C for 4 hours and then observed for any visible growth of bacteria detached from the peptide-treated biofilm. Growth of bacteria in a particular well indicated regrowth of planktonic cells from surviving biofilm. Minimum biofilm eradication concentration (MBEC) was defined as the minimum peptide concentration preventing regrowth of bacteria from the treated biofilm within 4 hours.

Assay [2] in a line: Calcein release from liposomes mimicking the membrane of E. coli. The note with it: PE/PG 7∶3 liposomes, 50 µM lipid, 10 min at 20°C, peptide 0,5 to 15 µM, fluorescence 490/517 nm, three independent experiments. The text has this: To investigate interaction of peptides M33-D and M33-L with the bacterial membrane, including possible perturbation, we used vesicles with two lipid compositions to mimic the membrane of S. aureus (CL/PG, 4∶6 mol/mol) and E. coli (PE/PG, 7∶3 mol/mol). […] The peptide-induced effect was dose-dependent in both vesicle lipid compositions. […] No significant differences in the effects induced by M33-D and M33-L were evident, although the D peptide seemed slightly more efficient towards CL/PG liposomes at doses above 8 µM. […] The greater perturbing effect of both forms of M33 on PE/PG vesicles, compared to vesicles containing cardiolipin, was evident.
Calcein-loaded liposomes of two different composition (PE/PG, 7∶3 mol/mol and CL/PG, 4∶6 mol/mol) were prepared as follows. […] Lipid concentration of vesicles was measured by the method of Stewart and the final concentration used for all measurements was 50 µM. Calcein fluorescence in the vesicles is self-quenched and leakage was measured by relief of quenching; the measurements were carried out at 517 nm, exciting at 490 nm, with a Perkin-Elmer LS 50B spectrofluorimeter. […] Leakage was calculated by the equation: [drawing 1] where F and Ft are fluorescence […] addition of detergent and F0 the fluorescence of intact vesicles.

Assay [3] is described as follows: Binding of LPS and LTA to immobilized peptides, surface plasmon resonance. The note with it: SPR, biotinylated peptides immobilized on SA flow cells; LPS/LTA 10 µg/ml in HBS-EP+ pH 7.4, injected 180 sec at 30 µl/min. The method, then:
Biotinylated peptides were immobilized on SA coated flow cells. M33-L and M33-D peptides, diluted to 10 µg/ml in HBS-EP+ buffer (10 mM Hepes, 150 mM NaCl, 3.4 mM EDTA, 0.05% polysorbate 20 pH 7.4), were injected for 90 sec at a flow rate of 10 µl/min, obtaining 550 RU and 580 RU for M33-L and M33-D respectively.
LTA and LPS molecules from different species (LPS from E. coli, K. pneumonia, P. aeruginosa and LTA from S. aureus and S. faecalis, were obtained from Sigma-Aldrich: L-3012, L-4268, L9143, L2515 and L4015, respectively) were diluted in HBS-EP+ buffer at the concentration of 10 µg/ml and injected for 180 sec with a flow rate of 30 µl/min over immobilized peptides. An empty flow cell was used as reference.
For orientation: In SPR one partner is held on a chip, and binding of the other changes the refractive index at the surface.

As for `CC[C@H](C)[C@H](NC(=O)[C@H](CCCCN)NC(=O)[C@@H](N)CCCCN)C(=O)N[C@@H](CCCNC(=N)N)C(=O)N[C@H](C(=O)N[C@@H](CCCNC(=N)N)C(=O)N[C@@H](CC(C)C)C(=O)N[C@@H](CO)C(=O)N[C@@H](C)C(=O)NCCCC[C@H](NC(=O)[C@H](C)NC(=O)[C@H](CO)NC(=O)[C@H](CC(C)C)NC(=O)[C@H](CCCNC(=N)N)NC(=O)[C@@H](NC(=O)[C@H](CCCNC(=N)N)NC(=O)[C@@H](NC(=O)[C@H](CCCCN)NC(=O)[C@@H](N)CCCCN)[C@@H](C)CC)C(C)C)C(=O)NCCCC[C@H](NC(=O)[C@H](CCCCNC(=O)[C@H](C)NC(=O)[C@H](CO)NC(=O)[C@H](CC(C)C)NC(=O)[C@H](CCCNC(=N)N)NC(=O)[C@@H](NC(=O)[C@H](CCCNC(=N)N)NC(=O)[C@@H](NC(=O)[C@H](CCCCN)NC(=O)[C@@H](N)CCCCN)[C@@H](C)CC)C(C)C)NC(=O)[C@H](C)NC(=O)[C@H](CO)NC(=O)[C@H](CC(C)C)NC(=O)[C@H](CCCNC(=N)N)NC(=O)[C@@H](NC(=O)[C@H](CCCNC(=N)N)NC(=O)[C@@H](NC(=O)[C@H](CCCCN)NC(=O)[C@@H](N)CCCCN)[C@@H](C)CC)C(C)C)C(=O)NCCC(=O)O)C(C)C` [M33-L] (I: H-KKIRVRLSAKK[βAla]-OH / II: H-KKIRVRLSAK / III: H-KKIRVRLSA / IV: H-KKIRVRLSA; amide I:10-IV:C, I:11-II:C, II:10-III:C; N-terminus assumed), the MIC (in general, the lowest concentration that inhibits growth of the organism) in the assay with P.aeruginosa ATCC 27853 is reported as 1.5 µM (≈ 7.02 µg/mL); with P.aeruginosa AV 65 it was 3 µM (≈ 14 µg/mL); in the assay with K.pneumoniae ATCC 13833, 1.5 µM (≈ 7.02 µg/mL); in the assay with K.pneumoniae 7086042, 3 µM (≈ 14 µg/mL); against E.coli ATCC 25922, 3 µM (≈ 14 µg/mL); in the assay on E.coli W03BG0025, 0.7 µM (≈ 3.28 µg/mL). Further, the figures for the MIC against S.aureus ATCC 29213 and in the assay on S.epidermidis 6154 were 6 µM (≈ 28.1 µg/mL) and 3 µM (≈ 14 µg/mL), respectively. Moreover, the “Minimum biofilm eradication concentration (MBEC)” value in [1] worked out at 12 µM. In [1] (S. aureus biofilm eradication, relative to M33-D), the “activity in biofilm eradication experiments with respect to M33-D” value amounted to 12%. Also, the “peptide concentration giving total calcein leakage” value in assay [2] is on record as 5 µM. The “binding and kinetic rates of LPS and LTA, M33-L compared with M33-D (in words)” value in assay [3] was “No significant difference in binding or kinetic rates”.

Take `CC[C@@H](C)[C@@H](NC(=O)[C@@H](CCCCN)NC(=O)[C@H](N)CCCCN)C(=O)N[C@H](CCCNC(=N)N)C(=O)N[C@@H](C(=O)N[C@H](CCCNC(=N)N)C(=O)N[C@H](CC(C)C)C(=O)N[C@H](CO)C(=O)N[C@H](C)C(=O)NCCCC[C@H](NC(=O)[C@@H](C)NC(=O)[C@@H](CO)NC(=O)[C@@H](CC(C)C)NC(=O)[C@@H](CCCNC(=N)N)NC(=O)[C@H](NC(=O)[C@@H](CCCNC(=N)N)NC(=O)[C@H](NC(=O)[C@@H](CCCCN)NC(=O)[C@H](N)CCCCN)[C@H](C)CC)C(C)C)C(=O)NCCCC[C@H](NC(=O)[C@H](CCCCNC(=O)[C@@H](C)NC(=O)[C@@H](CO)NC(=O)[C@@H](CC(C)C)NC(=O)[C@@H](CCCNC(=N)N)NC(=O)[C@H](NC(=O)[C@@H](CCCNC(=N)N)NC(=O)[C@H](NC(=O)[C@@H](CCCCN)NC(=O)[C@H](N)CCCCN)[C@H](C)CC)C(C)C)NC(=O)[C@@H](C)NC(=O)[C@@H](CO)NC(=O)[C@@H](CC(C)C)NC(=O)[C@@H](CCCNC(=N)N)NC(=O)[C@H](NC(=O)[C@@H](CCCNC(=N)N)NC(=O)[C@H](NC(=O)[C@@H](CCCCN)NC(=O)[C@H](N)CCCCN)[C@H](C)CC)C(C)C)C(=O)NCCC(=O)O)C(C)C` [M33-D] (I: H-[dK][dK][dI][dR][dV][dR][dL][dS][dA]KK[βAla]-OH / II: H-[dK][dK][dI][dR][dV][dR][dL][dS][dA]K / III: H-[dK][dK][dI][dR][dV][dR][dL][dS][dA] / IV: H-[dK][dK][dI][dR][dV][dR][dL][dS][dA]; amide I:10-IV:C, I:11-II:C, II:10-III:C; N-terminus assumed): the MIC against P.aeruginosa ATCC 27853 is listed as 1.5 µM (≈ 7.02 µg/mL); in the assay on P.aeruginosa AV 65 it was 3 µM (≈ 14 µg/mL); against K.pneumoniae ATCC 13833, 3 µM (≈ 14 µg/mL); with K.pneumoniae 7086042 it was 6 µM (≈ 28.1 µg/mL); with E.coli ATCC 25922, 3 µM (≈ 14 µg/mL); in the assay with E.coli W03BG0025, 3 µM (≈ 14 µg/mL). The minimum inhibitory concentration (MIC) against S.aureus ATCC 29213 was 1.5 µM (≈ 7.02 µg/mL); against S.epidermidis 6154, 0.7 µM (≈ 3.28 µg/mL). For the same molecule, in assay [1], the “Minimum biofilm eradication concentration (MBEC)” value came to 1.5 µM. The “peptide concentration giving total calcein leakage” value in assay [2] is on record as 5 µM. In assay [3], the “binding and kinetic rates of LPS and LTA, M33-L compared with M33-D (in words)” value is given as “No significant difference in binding or kinetic rates”.
